These results are taken from PMC11053489 (Viruses, 2024).

Usually pEC50 stands for −log10 of the EC50, conventionally taken in molar units. As a reminder, the EC90 is the point of the concentration-response curve where the effect stands at 90%.

pEC50: −log10 of the molar value. Like-named read-outs stand apart in the source and are kept apart here. Some results are limits rather than exact numbers.

The conditions of series [1]: following an IV infusion of remdesivir over 2 h, in vivo; cited from earlier work.
The subject of series [2] is SARS-CoV-2 (hCoV-19/USA-WA1/2020) in Calu-3 cells. As to the kind of experiment: microbe, parasite or virus in culture. The class given is cell-based. The note with it: for pEC50: read-out: Calu-3 SARS-CoV-2 EC50; for EC90: read-out: Calu-3 SARS-CoV-2 EC90.
Series [3] has as its system SARS-CoV-2 (hCoV-19/USA-WA1/2020) in Vero CCL-81 cells. As to the kind of experiment: microbe, parasite or virus in culture. The note with it: for pEC50: read-out: Vero CCL-81 SARS-CoV-2 EC50; for EC90: read-out: Vero CCL-81 SARS-CoV-2 EC90; for anti-SARS-CoV-2 activity (in words), concentrations up to 100 μM: Vero CCL-81 cells. The class given is cell-based.
For series [4], the system named is SARS-CoV-2 (hCoV-19/USA-WA1/2020) in Caco-2 cells. The note with it: for Caco-2 Unbound Cmax/EC50 / EC90: Caco-2.
For series [5] the following is noted: human, in vivo.
Series [6] is described as follows: in vitro. The note with it: human.
A short description of series [7]: in vitro. The note with it: human, Caco-2.
Series [8] is described as follows: in vitro. The note with it: African green monkey.
Series [9] in a line: in vitro. The note with it: human. The source holds these as a separate data set.
Series [10] can be described thus: in vitro. The note with it: human. This is another data set of the same source.
The nature of series [11]: in vitro. The note with it: human. This is another data set of the same source.
For series [12] the following is noted: cited from earlier work.
The conditions of series [13]: cited from earlier work. The source holds these as a separate data set.
For series [14] the following is noted: cited from earlier work. This is another data set of the same source.
For series [15] the following is noted: cynomolgus monkey, in vivo; cited from earlier work.
The conditions of series [16]: dog, in vivo; cited from earlier work.
Series [17] has as its system SARS-CoV-2 (hCoV-19/USA-WA1/2020) in Caco-2 cells. As to the kind of experiment: microbe, parasite or virus in culture. The note with it: Severe acute respiratory syndrome coronavirus 2, Caco-2, 72 h; for pEC50: read-out: Caco-2 SARS-CoV-2 EC50; for EC90: read-out: Caco-2 SARS-CoV-2 EC90.
Series [18] has as its system CCRF-CEM cells.
Series [19] deals with SARS-CoV-2 in Vero E6 cells. The note with it: read-out: EC50, SARS-CoV-2 infectivity in Vero E6 cells; cited from earlier work.
A further series relates to Vero E6 cells. The note with it: read-out: CC50 in Vero E6 cells; cited from earlier work.
For series [20] the following is noted: rats; cited from earlier work.
Series [21] has as its system Vero CCL-81 cells.
Series [22] relates to primary human peripheral blood mononuclear cells (PBM).
Series [23] deals with Huh-7 cells.
The conditions of series [24]: human astrocytes and hBTEC; cited from earlier work.
For series [25] the following is noted: primary hepatocytes; cited from earlier work.
In series [26] the test system is COVID-19 / SARS-CoV-2 infection. The note with it: cited from earlier work.
The nature of series [27]: Peak plasma concentration. The note with it: Table 1; Cmax × Fun.
A further series concerns SARS-CoV-2 in Vero cells. The note with it: read-out: EC50, virus replication in Vero cells; cited from earlier work.
For series [28] the following is noted: mice and rats; cited from earlier work.
The conditions of series [29]: cited from earlier work. This is another data set of the same source.
For series [30], the system named is Vero CCL-81 cells. Kind of series: MTS cytotoxicity assay, Vero CCL-81 cells. The note with it: up to 100 μM. Background: Formazan colour is commonly taken as a measure of viable cells.
The conditions of series [31]: in vivo; cited from earlier work.
Series [32] deals with primary human peripheral blood mononuclear cells (PBM). Kind of series: MTS cytotoxicity assay, PBM cells. The note with it: read-out: PBM CC50; 5 days.
Series [33] deals with CCRF-CEM cells. As to the kind of experiment: MTS cytotoxicity assay, CEM cells. The note with it: read-out: CEM CC50; 4 days.
In series [34] the test system is Huh-7 cells. As to the kind of experiment: MTS cytotoxicity assay, Huh-7 cells. The note with it: read-out: Huh7 CC50; 4 days.
Where [35] appears, read: Severe acute respiratory syndrome coronavirus 2, Calu-3, MOI 0.01, 72 h, 2% FBS.
The mark [36] stands for this setting: Severe acute respiratory syndrome coronavirus 2, Table 1 drugs, MOI 0.1, 48 h, 2% FBS.
Where [37] appears, read: remdesivir following IV infusion.
Setting [38] is: Severe acute respiratory syndrome coronavirus 2, Calu-3, 72 h.
Setting [39] is: Severe acute respiratory syndrome coronavirus 2, 48 h.
The mark [40] stands for this setting: Table 1, ref column Refs of Table 1.

On to `N#C[C@@]1(c2ccc3c(N)ncnn23)O[C@H](COP(=O)(O)OP(=O)(O)OP(=O)(O)O)[C@@H](O)[C@H]1O` [GS-441524-TP], for which, in series [1], the “t1/2 of GS-441524-TP in human blood mononuclear cells” value is 36 to 43 h.
With `N#C[C@@]1(c2ccc3c(N)ncnn23)O[C@H](CO)[C@@H](O)[C@H]1O` [GS-441524], the negative logarithm of the EC50 (pEC50) in series [2] (setting [35]) was 6.52; in [3] (setting [36]), 6.10; in series [17], 7.10. In addition, the EC90 in series [2] (setting [35]) is 2.34 µM; in series [3] (setting [36]) it was 1.4 µM; in series [17] it was 1.4 µM. Besides, in [4], the “Caco-2 Unbound Cmax/EC50” value is recorded as 30. Also, the “Cmax (μM) {unbound}” value in series [5] stood at 2.41 µM. The CC50 at 3 days in the series “in vitro [6]”, in the series “in vitro [7]” and in the series “in vitro [8]” was above 100 µM each time. The CC50 at 5 days in the series “in vitro [9]” was above 100 µM. The CC50 at 4 days in the series “in vitro [10]” and in the series “in vitro [11]” was above 100 µM in each case. For the same compound, the “Fun (unbound fraction of drug in plasma)” value in [12] (plasma) was 0.79. Also, the “plasma t1/2” value in [13] (setting [37]) was 6 to 7 h. Also, the oral bioavailability in [14] (monkey, in vivo, po) is recorded as below 10%; in series [15] it was “about 3%”; in series [16], around 89%.
As for `C=CCc1ccc(O)c(-c2ccc(O)c(CC=C)c2)c1` [Honokiol], the negative logarithm of the EC50 (pEC50) in series [2] (setting [38]) was 4.16; in [3] (setting [39]), 4.70; in [19], 4.89; in [17], 5.02. For the same compound, the EC90 turned out to be 94 µM in [2] (setting [38]), 84 µM in series [3] (setting [39]) and 80.4 µM in series [17]. For the same compound, the “CEM CC50 {Unbound}” value in the series with CCRF-CEM cells [18] (human) is recorded as 28.6 {26.8} μM. Further, the CC50 was 18.4 µM in the series “in vitro [7]”; 40.4 µM in “in vitro [8]”; 28.6 µM in “in vitro [10]” (CEM CC50, 4 days); 26.7 µM in “in vitro [10]” (CEM CC50 {Unbound}); 54 µM in the series with Vero E6 cells. For the same compound, in series [12] (setting [40]), the “Fun (unbound fraction of drug in plasma)” value is 0.36.
`C=CCc1ccc(O)c(-c2cc(CC=C)ccc2O)c1` [Magnolol]: the oral bioavailability in [20] was 4%.
Turning to `O=c1nc(NO)ccn1[C@@H]1O[C@H](CO)[C@@H](O)[C@H]1O` [NHC, β-D-N4-hydroxycytidine], the CC50 in the series on Calu-3 cells was above 100 µM; with Caco-2 cells it was above 100 µM; in the series with Vero CCL-81 cells [21], 18.8 µM; in series [22], 59.8 µM; in the series with Huh-7 cells [23], 59.1 µM. The “plasma t1/2” value in [13] (in vivo, iv) is given as 3.3 h.
For `O=c1nc(NO)ccn1[C@@H]1O[C@H](COP(=O)(O)OP(=O)(O)OP(=O)(O)O)[C@@H](O)[C@H]1O` [NTP of NHC], the “cellular t1/2” value in series [24] is 4 to 5 h; in series [25], 0.4 to 1.1 h.
Turning to `CCC(CC)COC(=O)[C@H](C)N[P@](=O)(OC[C@H]1O[C@@](C#N)(c2ccc3c(N)ncnn23)[C@H](O)[C@@H]1O)Oc1ccccc1` [Remdesivir], the values for the negative logarithm of the EC50 (pEC50) in series [2] (setting [35]), in series [3] (setting [36]) and in [17] were 6.70, 5.49 and 7.70, respectively. Moreover, the results for the 90% effect concentration (EC90) in [2] (setting [35]), in series [3] (setting [36]) and in [17] were 0.7 µM, 4.7 µM and 0.1 µM, respectively. Moreover, the “Caco-2 Unbound Cmax/EC50” value in series [4] came out at 22. Moreover, the “shortening of hospitalization duration” value in [26] (IV remdesivir, hospitalized patients with COVID-19, ACTT-1 trial) is given as 5 days. In addition, the reduction in hospitalizations in series [26] (IV, 3-day course, high-risk non-hospitalized patients, PINETREE trial) is reported as 87%. In addition, the CC50 in “in vitro [7]” and in “in vitro [8]” was above 100 µM each time. In series [12] (setting [40]), the “Fun (unbound fraction of drug in plasma)” value is 0.12. In addition, in series [13] (setting [37]), the “plasma t1/2” value is ~ 1 h. For the same compound, the “fraction of orally administered drug entering the systemic circulation intact” value in series [14] (African Green monkeys, oral) is reported as below 1%. For the same compound, the “Cmax (μM) {unbound}” value in series [27] amounted to 0.44 µM.
Take `CC(C)(Oc1ccc(C(=O)c2ccc(Cl)cc2)cc1)C(=O)O` [fenofibric acid]: in the series on SARS-CoV-2 in Vero cells, the pEC50 is 5.15.
As to `c1coc(CNc2ncnc3[nH]cnc23)c1` [kinetin, N^6-furfurylaminopurine], the “antiviral activity in Vero CCL-81 cells (in words)” value in series [3] (NAs and nucleoside-base precursors, evaluated up to 20 μM) was “lack of antiviral activity”. For the same compound, in [3], the “anti-SARS-CoV-2 activity (in words), concentrations up to 100 μM” value was “did not inhibit SARS-CoV-2”. In series [28], the oral bioavailability was 50%. In series [29], the “bound to plasma proteins” value is recorded as ~ 80%. Also, in the series with Vero CCL-81 cells [30], the “cytotoxicity (in words), up to 100 μM” value is given as “not cytotoxic”.
`CN(C)C(=N)N=C(N)N` [metformin]: the “anti-SARS-CoV-2 activity (in words), concentrations up to 100 μM” value in series [3] is “inactive”; in series [3] (listed as Metformin) it was “did not observe an EC50”. The “cytotoxicity (in words), up to 100 μM” value in the series with Vero CCL-81 cells [21] (African green monkey) is on record as “did not observe an EC50 or cytotoxicity”. Besides, the “absolute reduction in long COVID incidence compared with placebo” value in series [26] (COVID-OUT) is given as 4.1%. In series [26] (outpatient treatment, COVID-OUT), the “reduction of the incidence of long COVID” value is reported as “about 41%”. Also, the “plasma Cmax (bound + unbound)” value in series [31] is 10200 nM.
As for Iota-Carrageenan, the EC90 was 1.9 µM in series [2], 1.6 µM in [3] and 93.3 µM in series [4]. Also, the CC50 was above 100 µM with Calu-3 cells; above 100 µM in the series on Caco-2 cells; above 100 µM in [32]; 95.9 µM with CCRF-CEM cells [33]; above 100 µM in the series with Huh-7 cells [34]. The absolute risk reduction in series [26] (topical nasal spray, 300 hospital personnel) is 4%.
Take Ivermectin: the values for the pEC50 in series [2], in [3] and in [4] (read-out: Caco-2 SARS-CoV-2 EC50) were 5.21, 5.68 and 5.35, respectively. Further, the EC90 in series [2] was 9.3 µM; in [3], 4.5 µM; in series [4] it was 8.9 µM. Also, the “Caco-2 Unbound Cmax/EC50” value in series [4] amounted to 0.005. The CC50 in the series with Calu-3 cells amounted to 17.5 µM; with Caco-2 cells, 5.8 µM; in the series with Vero CCL-81 cells [21], 35.2 µM; in [32] it was 29.2 µM; in the series on CCRF-CEM cells [33], 12 µM; in the series with Huh-7 cells [34], 5.6 µM. In addition, in the series with Vero CCL-81 cells [21], the “Vero CC50 {Unbound}” value is 35.2 {31.9} μM. Besides, the “PBM CC50 {Unbound}” value in series [22] was 29.2 {23.8} μM. In addition, in the series with CCRF-CEM cells [18], the “CEM CC50 {Unbound}” value is listed as 12 {9.5} μM. In the series on Huh-7 cells [23], the “Huh7 CC50 {Unbound}” value was 5.6 {5.1} μM. The “Fun (unbound fraction of drug in plasma)” value in series [12] (setting [40]) is listed as 0.07.
